Consider six compounds from patent publication US12319648B2, “Fluorinated phenylacetic acid derivatives in a weed control method” (SYNGENTA CROP PROTECTION AG, priority 2019, dated 2025).

Molecules are shown by their SMILES.

Holding throughout (type): in vivo
In assay [1] the test system is Setaria faberi (SETFA). Description: Post-emergence herbicidal glasshouse test. The note with it: for % phytotoxicity SETFA: comparative post-emergence test; for percentage damage caused to the plant, five-point scale, SETFA: post-emergence, 250 g/ha, 13 days after application. Here is the method:
(§1) Seeds of a variety of test species are shown in standard soil in pots Amaranthus retoflexus (AMARE), Ipomoea hederacea (IPOHE), Solanum nigrum (SOLNI), Lolium perenne (LOLPE). Echinochloa crus-galli (ECHCG), Setaria faberi (SETFA)). After cultivation for one day (pre-emergence) or after 8 days cultivation (post-emergence) under controlled conditions in a glasshouse (at 24/16° C., day/night; 14 hours light; 65% humidity), the plants are sprayed with an aqueous spray solution derived from the formulation of the technical active ingredient in acetone/water (50:50) solution containing 0.5% Tween 20 (polyoxyethylene sorbitan monolaurate, CAS RN 9005-64-5). Compounds are applied at 250 g/ha unless otherwise stated. The test plants are then grown in a glasshouse under controlled conditions in a glasshouse (at 24/16° C., day/night; 14 hours light; 65% humidity) and watered twice daily. After 13 days for pre and post-emergence, the test is evaluated for the percentage damage caused to the plant. The biological activities are shown in the following table on a five-point scale (5=81-100%; 4=61-80%; 3=41-60%; 2=21-40%; 1=0-20%).
(§2) Using the experimental conditions outlined above, a further test is conducted to compare the herbicidal properties of the difluro containing compound (1.014) with a representative compound (C1) referred to in GB901553. The compounds are applied at 1000 g/ha and 500 g/ha. The test is evaluated for the percentage damage caused to the plant (% phytotoxicity).

Assay [2] deals with Solanum nigrum (SOLNI). Description: Post-emergence herbicidal glasshouse test. The note with it: for % phytotoxicity SOLNI: comparative post-emergence test; for percentage damage caused to the plant, five-point scale, SOLNI: post-emergence, 250 g/ha, 13 days after application. Here is the method:
as §1, §2

The subject of assay [3] is Echinochloa crus-galli (ECHCG). Briefly: Post-emergence herbicidal glasshouse test. As to conditions: for % phytotoxicity ECHCG: comparative post-emergence test; for percentage damage caused to the plant, five-point scale, ECHCG: post-emergence, 250 g/ha, 13 days after application. Here is the method: as §1, §2
Assay [4] has as its system Lolium perenne (LOLPE). Briefly: Post-emergence herbicidal glasshouse test. As to conditions: for % phytotoxicity LOLPE: comparative post-emergence test; for percentage damage caused to the plant, five-point scale, LOLPE: post-emergence, 250 g/ha, 13 days after application. Here is the method: as §1, §2
Assay [5] relates to Ipomoea hederacea (IPOHE). Description: Post-emergence herbicidal glasshouse test. As to conditions: for % phytotoxicity IPOHE: comparative post-emergence test; for percentage damage caused to the plant, five-point scale, IPOHE: post-emergence, 250 g/ha, 13 days after application. Here is the method: as §1, §2
Assay [6] concerns Amaranthus retoflexus (AMARE). Description: Post-emergence herbicidal glasshouse test. As to conditions: for % phytotoxicity AMARE: comparative post-emergence test; for percentage damage caused to the plant, five-point scale, AMARE: post-emergence, 250 g/ha, 13 days after application. Here is the method:
as §1, §2

The test system of assay [7] is Setaria faberi (SETFA). Description: Pre-emergence herbicidal glasshouse test. As to conditions: for % phytotoxicity SETFA: comparative pre-emergence test; for percentage damage caused to the plant, five-point scale, SETFA: pre-emergence, 250 g/ha, 13 days after application. Here is the method:
as §1, §2

The test system of assay [8] is Solanum nigrum (SOLNI). Briefly: Pre-emergence herbicidal glasshouse test. As to conditions: for % phytotoxicity SOLNI: comparative pre-emergence test; for percentage damage caused to the plant, five-point scale, SOLNI: pre-emergence, 250 g/ha, 13 days after application. How it is done: as §1, §2
Assay [9] has as its system Echinochloa crus-galli (ECHCG). Briefly: Pre-emergence herbicidal glasshouse test. The note with it: for % phytotoxicity ECHCG: comparative pre-emergence test; for percentage damage caused to the plant, five-point scale, ECHCG: pre-emergence, 250 g/ha, 13 days after application. Here is the method:
as §1, §2

In assay [10] the test system is Lolium perenne (LOLPE). Description: Pre-emergence herbicidal glasshouse test. As to conditions: for % phytotoxicity LOLPE: comparative pre-emergence test; for percentage damage caused to the plant, five-point scale, LOLPE: pre-emergence, 250 g/ha, 13 days after application. Here is the method: as §1, §2
Assay [11] deals with Ipomoea hederacea (IPOHE). Briefly: Pre-emergence herbicidal glasshouse test. The note with it: for % phytotoxicity IPOHE: comparative pre-emergence test; for percentage damage caused to the plant, five-point scale, IPOHE: pre-emergence, 250 g/ha, 13 days after application. How it is done:
as §1, §2

The test system of assay [12] is Amaranthus retoflexus (AMARE). Description: Pre-emergence herbicidal glasshouse test. The note with it: for % phytotoxicity AMARE: comparative pre-emergence test; for percentage damage caused to the plant, five-point scale, AMARE: pre-emergence, 250 g/ha, 13 days after application. Here is the method:
as §1, §2

Take `O=C(O)C(F)(F)c1cccc(Cl)c1Cl` [Compound 1.014]: the “% phytotoxicity SETFA” value in [1] (500 g/ha), in assay [1] (1000 g/ha), in assay [7] (500 g/ha) and in assay [7] (1000 g/ha) was 90% each time. The “percentage damage caused to the plant, five-point scale, SETFA” value (“percentage damage caused … SETFA” for short) is recorded as 5 (5=81-100%) in assay [1] and 4 (4=61-80%) in assay [7]. Also, the “% phytotoxicity SOLNI” value in [2] (500 g/ha), in [2] (1000 g/ha), in assay [8] (500 g/ha) and in assay [8] (1000 g/ha) was 100% in each case. Besides, the “percentage damage caused to the plant, five-point scale, SOLNI” value (“percentage damage caused … SOLNI” below) in assay [2] and in assay [8] was 5 (5=81-100%) each time. The “% phytotoxicity ECHCG” value came to 80% in assay [3] (500 g/ha), 90% in assay [3] (1000 g/ha), 30% in [9] (500 g/ha) and 80% in [9] (1000 g/ha). Besides, the “percentage damage caused to the plant, five-point scale, ECHCG” value (shortened to “percentage damage caused … ECHCG”) in [3] and in [9] was 5 (5=81-100%) each time. The “% phytotoxicity LOLPE” value in assay [4] (500 g/ha) amounted to 10%; in assay [4] (1000 g/ha), 20%; in assay [10] (500 g/ha) it was 10%; in [10] (1000 g/ha) it was 40%. For the same compound, the “percentage damage caused to the plant, five-point scale, LOLPE” value (“percentage damage caused … LOLPE” for short) in [4] and in assay [10] was 1 (1=0-20%) each time. Further, the “% phytotoxicity IPOHE” value came out at 90% in assay [5] (500 g/ha), 90% in [5] (1000 g/ha), 80% in [11] (500 g/ha) and 90% in [11] (1000 g/ha). Besides, the “percentage damage caused to the plant, five-point scale, IPOHE” value (“percentage damage caused … IPOHE” below) in [5] and in assay [11] was 5 (5=81-100%) each time. For the same compound, the “% phytotoxicity AMARE” value in assay [6] (500 g/ha) is given as 100%; in assay [6] (1000 g/ha), 100%; in assay [12] (500 g/ha), 90%; in [12] (1000 g/ha), 100%. For the same compound, the “percentage damage caused to the plant, five-point scale, AMARE” value (shortened to “percentage damage caused … AMARE”) in assay [6] and in assay [12] was 5 (5=81-100%) throughout.
`O=C(O)C(F)(F)c1cccc(Cl)c1F` [Compound 1.029]: the entries for the “percentage damage caused … SETFA” value in [1] and in assay [7] were 3 (3=41-60%) and 2 (2=21-40%), respectively. Further, the “percentage damage caused … SOLNI” value in [2] is 4 (4=61-80%); in [8] it was 5 (5=81-100%). Further, the “percentage damage caused … ECHCG” value is listed as 2 (2=21-40%) in [3] and 1 (1=0-20%) in assay [9]. Moreover, the “percentage damage caused … LOLPE” value in assay [4] was 1 (1=0-20%); in assay [10], 2 (2=21-40%). The “percentage damage caused … IPOHE” value in assay [5] and in [11] was 3 (3=41-60%) throughout. The “percentage damage caused … AMARE” value in assay [6] and in assay [12] was 5 (5=81-100%) each time.
On to `O=C(O)C(F)(F)c1cccc(F)c1F` [Compound 1.031], for which the “percentage damage caused … SETFA” value in assay [1] and in [7] was 1 (1=0-20%) throughout. The “percentage damage caused … SOLNI” value in assay [2] is reported as 3 (3=41-60%); in assay [8], 1 (1=0-20%). Also, the “percentage damage caused … ECHCG” value in [3] and in assay [9] was 1 (1=0-20%) in each case. Also, the “percentage damage caused … LOLPE” value in assay [4] and in assay [10] was 1 (1=0-20%) in each case. The “percentage damage caused … IPOHE” value in assay [5] and in [11] was 3 (3=41-60%) each time. Further, the “percentage damage caused … AMARE” value in assay [6] is 3 (3=41-60%); in assay [12] it was 1 (1=0-20%).
Regarding `O=C(O)C(F)(F)c1cccc(F)c1Br` [Compound 1.032], the “percentage damage caused … SETFA” value in assay [1] and in [7] was 1 (1=0-20%) in each case. In addition, the “percentage damage caused … SOLNI” value in assay [2] and in assay [8] was 4 (4=61-80%) each time. Further, the “percentage damage caused … ECHCG” value in [3] and in [9] was 1 (1=0-20%) in each case. Moreover, the “percentage damage caused … LOLPE” value in [4] and in assay [10] was 1 (1=0-20%) in each case. Also, the “percentage damage caused … IPOHE” value in assay [5] and in [11] was 4 (4=61-80%) throughout. For the same compound, the “percentage damage caused … AMARE” value in [6] and in assay [12] was 4 (4=61-80%) throughout.
`O=C(O)C(F)(F)c1cccc(Br)c1F` [Compound 1.033]: the “percentage damage caused … SETFA” value in [1] and in assay [7] was 4 (4=61-80%) each time. Moreover, the “percentage damage caused … SOLNI” value in assay [2] and in [8] was 5 (5=81-100%) each time. The “percentage damage caused … ECHCG” value in assay [3] and in assay [9] was 4 (4=61-80%) throughout. Further, the “percentage damage caused … LOLPE” value in [4] and in [10] was 1 (1=0-20%) throughout. Further, the “percentage damage caused … IPOHE” value in assay [5] and in [11] was 4 (4=61-80%) in each case. Moreover, the “percentage damage caused … AMARE” value in [6] and in assay [12] was 5 (5=81-100%) in each case.
For `O=C(O)C(F)(F)c1cccc(F)c1Cl` [Compound 1.036], the “percentage damage caused … SETFA” value in assay [1] and in assay [7] was 1 (1=0-20%) in each case. The “percentage damage caused … SOLNI” value in [2] and in assay [8] was 4 (4=61-80%) in each case. Also, the “percentage damage caused … ECHCG” value in [3] and in [9] was 1 (1=0-20%) each time. Besides, the “percentage damage caused … LOLPE” value in assay [4] and in assay [10] was 1 (1=0-20%) in each case. Besides, the “percentage damage caused … IPOHE” value in assay [5] and in assay [11] was 4 (4=61-80%) each time. Moreover, the “percentage damage caused … AMARE” value in assay [6] and in assay [12] was 4 (4=61-80%) each time.
